Common to all, as to format: cell-based
The test system of assay [1] is SRS-A evoked ileal contractions. The assay is described as follows: Antagonism of crude SRS-A-evoked contraction of isolated guinea pig ileum (single concentration). The settings on record: Cavia porcellus, 5 min, 5 minute exposure, pyrilamine 1×10^-6 M, read-out: Percent Inhibition of SRS-A evoked ileal contractions; for inhibition at 3 µM: 3 × 10^-6 M. Here is the method:
(§1) Male, Hartley guinea pigs weighing 200-450 grams were killed by decapitation. A section of terminal ileum was removed, the lumen cleaned, and the tissue divided into 2.5 cm. segments. The ilea were mounted in 10 ml. tissue baths containing Krebs-bicarbonate solution of the following composition in mmoles/liter: KCl, 4.6; CaCl2.2H2 O, 1.2; KH2 PO4, 1.2; MgSO4.7H2 O, 1.2; NaCl, 118.2; NaHCO3, 24.8 and dextrose, 10.0. The bath fluid was maintained at 37° C. and aerated with 95 percent oxygen and 5 percent CO2. In addition, the buffer contained 1×10^-6 M atropine to reduce ileal spontaneous activity. In studies with crude SRS-A, 1×10^-6M pyrilamine was used to mitigate the actions of histamine present along with the biologically active leukotrienes. Isometric measurements were made with a Grass FTO3C force-displacement transducer and recorded on a Grass polygraph as change in grams of force. A passive force of 0.5 g. was applied to the tissues. After an appropriate equilibration period, single submaximal control responses to either SRS-A or pure LTD4 were obtained. Following a 5 minute exposure of the ileum to an experimental drug, the control concentration of SRS-A or LTD4 was added to the tissue bath. The response of the ileum to SRS-A or LTD4 in the presence of the drug was compared to the response in the absence of the drug.
(§2) *Compounds marked with an asterisk were tested using crude SRSA as the
(§3) ileumcontracting agent; all other compounds were tested using pure

Assay [2] deals with T1, LTD4 evoked ileal contractions (Cavia porcellus, UniProt Q2NNR5).
T1 construct: A section of terminal ileum was removed, the lumen cleaned, and the tissue divided into 2.5 cm. segments; from tissue; host or cells: terminal ileum of male Hartley guinea pigs
T1 sequence (Q2NNR5 1-340): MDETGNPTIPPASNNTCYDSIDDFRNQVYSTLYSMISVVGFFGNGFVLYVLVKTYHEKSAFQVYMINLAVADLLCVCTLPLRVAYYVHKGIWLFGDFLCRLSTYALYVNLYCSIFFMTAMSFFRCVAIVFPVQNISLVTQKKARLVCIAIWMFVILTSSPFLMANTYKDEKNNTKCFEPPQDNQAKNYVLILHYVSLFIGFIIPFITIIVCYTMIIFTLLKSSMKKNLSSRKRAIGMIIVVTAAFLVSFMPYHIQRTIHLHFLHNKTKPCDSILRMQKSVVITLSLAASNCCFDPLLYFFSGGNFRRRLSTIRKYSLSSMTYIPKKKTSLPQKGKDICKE
As to the kind of experiment: LTD4 antagonism, cumulative concentration-response curves in guinea pig ileum and trachea (pA2). The following applies: 30 minute incubation with antagonist, Furchgott method. Here is the method:
For some of the drugs in this series a more detailed analysis of LTD4 antagonism was made. In these experiments, cumulative concentration-response curves were obtained to LTD4 in guinea pig ileum and trachea. This was followed by a 30 minute incubation with various concentrations of the experimental drug. The concentration response curve to LTD4 was then repeated in the presence of the antagonist. Only one concentration of antagonist was used on a single tissue. KB values were calculated by the method of Furchgott [Ann. N.Y. Acad. Sci., 139, 553 (1967)]using the following equation. [formula] Dose ratio refers to the concentration of agonist required to elicit 50 percent of the maximal response (ED50) in the presence of the antagonist divided by the ED50 in the absence of the antagonist. Calculations were performed with the aid of a computer and a digital plotter.

In assay [3] the target is T1, LTD4 evoked ileal contractions. The assay is described as follows: Antagonism of LTD4-evoked contraction of isolated guinea pig ileum (single concentration). The following applies: pure LTD4, 5 minute exposure, read-out: Percent Inhibition of LTD4 evoked ileal contractions; for inhibition at 1 µM: 1 × 10^-6 M; for inhibition at 3 µM: 3 × 10^-6 M; for inhibition at 10 µM: 1 × 10^-5 M. Here is the method: as §1, §2, §3

Where a name gives a salt, the structure may show the parent alone.

What is called inhibition is how much of the control response was suppressed. As for `CC(=O)c1ccc(OCCCCCC(=O)O)cc1O` [Example 25, 6-(4-Acetyl-3-hydroxyphenoxy)hexanoic acid], in assay [1], the inhibition at 3 µM is 11%.
Usually Kb stands for the affinity of an antagonist, worked out from how it opposes an agonist. Low readings indicate higher antagonist affinity, high ones lower antagonist affinity. `CCCc1c(OCCCCC(=O)O)ccc(C(C)=O)c1O` [Example 28, 5-(4-Acetyl-3-hydroxy-2-propylphenoxy)pentanoic acid]: the inhibition at 3 µM in assay [1] came out at 61%. This compound had a Kb in assay [2] of 1580 nM.
On to `CCCc1c(OCCCCCCCCc2nnn[nH]2)ccc(C(C)=O)c1O` [Example 11, 5-[8-(4-Acetyl-3-hydroxy-2-propylphenoxy)octyl]-tetrazole], for which, in assay [3], the inhibition at 1 µM came out at 89% and the inhibition at 3 µM worked out at 100%. The compound also had a Kb in assay [2] of 316 nM.
As to `CCCc1c(OCCCCCCCCSc2nn[nH]n2)ccc(C(C)=O)c1O` [Example 73, 5-[8-(4-Acetyl-3-hydroxy-2-propylphenoxy)octanethio]-tetrazole], in assay [3], the inhibition at 10 µM came out at 100% and the inhibition at 1 µM was determined as 50%. In addition, in assay [2], the Kb was 501 nM.
`CCCc1c(OCCCCCCCCCCc2nnn[nH]2)ccc(C(C)=O)c1O` [Example 13, 5-[10-(4-Acetyl-3-hydroxy-2-propylphenoxy)decyl]-tetrazole]: in assay [3], the inhibition at 1 µM came out at 76% and the inhibition at 3 µM amounted to 93%. In assay [2], this compound had a Kb of 316 nM.
Turning to `CCCc1c(OCCCCCc2nnn[nH]2)ccc(C(C)=O)c1O` [Example 22, 5-[5-(4-Acetyl-3-hydroxy-2-propylphenoxy)pentyl]-tetrazole], the inhibition at 3 µM in assay [3] came out at 87%. In assay [2], this compound showed a Kb of 263 nM.
On to `CCCc1c(OCCCCCC(=O)O)ccc(C(=O)CC)c1O` [Example 34, 6-(4-Propionyl-3-hydroxy-2-propylphenoxy)hexanoic acid], for which, in assay [3], the inhibition at 10 µM came out at 88% and the inhibition at 3 µM amounted to 56%. For the same compound, the Kb in assay [2] was 794 nM.
With `CCCc1c(OCCCCCCc2nnn[nH]2)ccc(C(C)=O)c1O` [Example 9, 5-[6-(4-Acetyl-3-hydroxy-2-propylphenoxy)hexyl]-tetrazole], in assay [3], the inhibition at 1 µM stood at 87% and the inhibition at 3 µM was 100%. In assay [2], this compound showed a Kb of 79.4 nM.
On to `CCCc1c(OCCCCCCCCCc2nnn[nH]2)ccc(C(C)=O)c1O` [Example 12, 5-[9-(4-Acetyl-3-hydroxy-2-propylphenoxy)nonyl]-tetrazole], for which, in assay [3], the inhibition at 1 µM was found to be 78% and the inhibition at 3 µM is 90%. The compound further gave a Kb in assay [2] of 316 nM.
On to `CCCc1c(OCCCCCSc2nn[nH]n2)ccc(C(C)=O)c1O` [Example 68, 5-[5-(4-Acetyl-3-hydroxy-2-propylphenoxy)pentanethio]-tetrazole], for which, in assay [3], the inhibition at 10 µM was found to be 100% and the inhibition at 1 µM turned out to be 82%. The Kb in assay [2] is 158 nM.
Turning to `CCCc1c(OCCCCCCCc2nnn[nH]2)ccc(C(C)=O)c1O` [Example 10, 5-[7-(4-Acetyl-3-hydroxy-2-propylphenoxy)heptyl]-tetrazole], in assay [3], the inhibition at 1 µM turned out to be 92% and the inhibition at 3 µM is 95%. The compound also had a Kb in assay [2] of 79.4 nM.
For `CCCc1c(OCCSc2nn[nH]n2)ccc(C(C)=O)c1O` [Example 58, 5-[2-(4-Acetyl-3-hydroxy-2-propylphenoxy)ethanethio]-tetrazole], in assay [3], the inhibition at 1 µM amounted to 47%. Besides, the Kb in assay [2] was 1120 nM.
In the case of `CC(=O)c1ccc(OC(CCCCC(=O)O)c2ccccc2)cc1O` (stereo not drawn) [Example 20, 6-(4-Acetyl-3-hydroxyphenoxy)-6-phenyl-hexanoic acid], in assay [1], the inhibition at 3 µM amounted to 20%.
Take `CCCc1c(OCCCCSc2nn[nH]n2)ccc(C(C)=O)c1O` [Example 57, 5-[4-(4-Acetyl-3-hydroxy-2-propylphenoxy)butanethio]-tetrazole]: in assay [3], the inhibition at 1 µM turned out to be 87%. In assay [2], this compound gave an antagonist dissociation constant (Kb) of 100 nM.
For `CCCc1c(OC(C)CCCCC(=O)O)ccc(C(C)=O)c1O` (stereo not drawn) [Example 40, 6-(4-Acetyl-3-hydroxy-2-propylphenoxy)heptanoic acid], in assay [3], the inhibition at 10 µM was found to be 79% and the inhibition at 3 µM stood at 45%. Further, the Kb in assay [2] is 1580 nM.
Take `CCCc1c(OCCCSc2nn[nH]n2)ccc(C(C)=O)c1O` [Example 59, 5-[3-(4-Acetyl-3-hydroxy-2-propylphenoxy)propanethio]-tetrazole]: the inhibition at 1 µM in assay [3] came out at 95%. In assay [2], this compound had a Kb of 31.6 nM.
Regarding `CCCc1c(OCCCCCC(=O)O)ccc(C(C)=O)c1O` [Example 24, 6-(4-Acetyl-3-hydroxy-2-propylphenoxy)hexanoic acid], in assay [3], the inhibition at 3 µM is 81%. Further, in assay [2], the Kb was 398 nM.
Turning to `CCCc1c(OC(CCCCC(=O)O)c2ccc(-c3ccccc3)cc2)ccc(C(C)=O)c1O` (stereo not drawn) [Example 17, 6-(4-Acetyl-3-hydroxy-2-propylphenoxy)-6-(4-biphenyl)hexanoic acid], the inhibition at 10 µM in assay [1] (1 × 10^-5 M) worked out at 44%.
For the compound `CCCc1c(OCCCCCCCCC(=O)O)ccc(C(C)=O)c1O` [Example 31, 9-(4-Acetyl-3-hydroxy-2-propylphenoxy)nonanoic acid], in assay [3], the inhibition at 10 µM came out at 94% and the inhibition at 1 µM worked out at 51%. This compound gave a Kb in assay [2] of 2000 nM.
Regarding `C=CCc1c(OCCCCCC(=O)O)ccc(C(C)=O)c1O` [Example 26, 6-(4-Acetyl-3-hydroxy-2-allylphenoxy)-hexanoic acid], the inhibition at 3 µM in assay [3] came to 29%.
Regarding `CCCc1c(OCCCCCCN)ccc(C(C)=O)c1O` [Example 36, 6-(4-Acetyl-3-hydroxy-2-propylphenoxy)hexylamine hydrochloride], in assay [3], the inhibition at 1 µM was found to be 26% and the inhibition at 3 µM turned out to be 42%.

The values above are taken from patent US4661505A, “Leukotriene antagonists” (Eli Lilly and Company, priority 1982, dated 1987).
